# From the Deep4Chem optical property database
# Assay: solvent given as SMILES
compound,measurement,setting,value
CC1(C)c2ccccc2N(c2ccccc2)c2ccc(-c3ccc(C(=O)c4ccc(-c5ccc6c(c5)C(C)(C)c5ccccc5N6c5ccccc5)cc4)cc3)cc21,emission maximum,in Cc1ccccc1,449.72 nm
same,emission maximum,in O=P(c1ccccc1)(c1ccccc1)c1ccccc1Oc1ccccc1P(=O)(c1ccccc1)c1ccccc1,475 nm
Cc1ccc2c(c1)C(c1ccccc1)(c1ccccc1)c1cc(C)ccc1N2c1cc(C(C)C)c(B2c3ccccc3Sc3ccccc32)c(C(C)C)c1,emission maximum,in Cc1ccccc1,487 nm
same,emission maximum,in O=P(c1ccccc1)(c1ccccc1)c1ccc2oc3ccc(P(=O)(c4ccccc4)c4ccccc4)cc3c2c1,485 nm
COC(=O)c1ccc(/C=C2\C=C(c3ccccc3)OC2=O)cc1,emission maximum,in C1COCCO1,495 nm
O=c1oc2cccc3c4cccc5ccc6c7ccccc7c1c(c23)c6c54,emission maximum,in C1CCOC1,446 nm
CC1=CC(C)=[N+]2C1=C(c1c3ccccc3c(-c3ccccc3)c3ccccc13)c1c(C)cc(C)n1[B-]2(F)F,emission maximum,in CC#N,508 nm
same,emission maximum,in CCCCCC,514 nm
same,emission maximum,in CCO,512 nm
same,emission maximum,in CN(C)C=O,515 nm
same,emission maximum,in Cc1ccccc1,519 nm
same,emission maximum,in ClCCl,515 nm
N#Cc1ccc(N2c3ccccc3C(c3ccccc3)(c3ccccc3)c3ccccc32)cc1,emission maximum,in Cc1ccccc1,428 nm
CN(C)c1ccc(/C=C/C=C/c2ccc([N+](=O)[O-])c(O)c2)cc1,emission maximum,in C1CCCCC1,530 nm
same,emission maximum,in C1CCOC1,686 nm
same,emission maximum,in C1COCCO1,634 nm
same,emission maximum,in CCCCCCC,523 nm
same,emission maximum,in Cc1ccccc1,609 nm
CC(C)(C)c1ccc2c(c1)B1c3cc(C(C)(C)C)ccc3Oc3cc(N4c5ccccc5C(C)(C)c5ccccc54)cc(c31)O2,emission maximum,in Cc1ccccc1,458 nm
CC1=[N+]2C(=C(c3c4ccccc4cc4ccccc34)c3ccc(/C=C/C(C)(C)C)n3[B-]2(F)F)C=C1,emission maximum,in ClC(Cl)Cl,556 nm
Fc1c(-n2c3ccccc3c3ccccc32)c(-c2nnc(-c3ccccc3)o2)c(-n2c3ccccc3c3ccccc32)c(-n2c3ccccc3c3ccccc32)c1-n1c2ccccc2c2ccccc21,emission maximum,in Cc1ccccc1,483 nm
Cc1ccc(-c2ccc(/C=C/c3ccc(Br)n3C)cn2)nc1,emission maximum,in CC#N,480 nm
C[Si]1(C)c2ccccc2-c2cc3c(cc21)-c1ccccc1[Si]3(C)C,emission maximum,in ClCCl,384 nm
COc1cc(C2=c3c(c4ccc(C(C)(C)C)cc4c4cc(C(C)(C)C)ccc34)=[N+]3C2=Nc2c(-c4cc(OC)c(OC)c(OC)c4)c4c5ccc(C(C)(C)C)cc5c5cc(C(C)(C)C)ccc5c4n2[B-]3(F)F)cc(OC)c1OC,emission maximum,in Cc1ccccc1,816 nm
COC(=O)c1ccc(C(=O)NC(C)(C)C)c2c1ccc1c3ccccc3c3ccccc3c12,emission maximum,in ClCCl,448 nm
O=c1c2cc(C#Cc3ccc(Cl)cc3)ccc2nc2ccc(C#Cc3ccc(Cl)cc3)cn12,emission maximum,in ClCCl,478 nm
O=C1[C@@H]2[C@H](C(=O)N1c1cccc3cc4ccccc4cc13)[C@@H]1C=C[C@H]2C1,emission maximum,in ClC(Cl)Cl,392 nm
CCCCN(CCCC)c1ccc(C#Cc2cc(C#Cc3ccc(N(CCCC)CCCC)cc3)c(C#Cc3ccc(C(F)(F)F)cc3)cc2C#Cc2ccc(C(F)(F)F)cc2)cc1,emission maximum,in ClCCl,541 nm
same,emission maximum,in c1ccccc1,493 nm
CCCCCCc1cc2c(s1)-c1sc(CCCCCC)cc1P(c1ccccc1)(c1ccccc1)=[O+][B-]2(c1c(C)cc(C)cc1C)c1c(C)cc(C)cc1C,emission maximum,in C1CCOC1,536 nm
CC(C)(C)NC(=O)c1ccc2ccc3cccc4c3c2c1c1c2ccccc2c2ccccc2c41,emission maximum,in ClCCl,425 nm
Fc1ccc(-c2nc3n(c2-c2ccncc2)CCS3)cc1,emission maximum,in C1CCCCC1,397.5 nm
same,emission maximum,in C1CCOC1,414 nm
same,emission maximum,in C1COCCO1,412 nm
same,emission maximum,in CC#N,420 nm
same,emission maximum,in CC(C)(C)O,420 nm
same,emission maximum,in CC(C)=O,418 nm
same,emission maximum,in CC(C)O,436 nm
same,emission maximum,in CCO,438 nm
same,emission maximum,in CCOC(C)=O,414 nm
same,emission maximum,in CN(C)C=O,426 nm
same,emission maximum,in CNC=O,446 nm
same,emission maximum,in CO,439 nm
same,emission maximum,in CS(C)=O,436 nm
same,emission maximum,in Cc1ccc(C)cc1,411.5 nm
same,emission maximum,in Cc1ccccc1,412 nm
same,emission maximum,in ClC(Cl)Cl,413.5 nm
same,emission maximum,in ClCCl,415 nm
same,emission maximum,in O,415 nm
same,emission maximum,in OCCO,440.5 nm
same,emission maximum,in c1ccncc1,434 nm
COc1ccc2c(c1)c1cc(OC)ccc1c1c2ccc2cccc(C(=O)NC(C)(C)C)c21,emission maximum,in ClCCl,415 nm
CC[N+]1(CC)CN2C(=N1)C(C(=O)O)=Cc1cc(Cl)ccc12,emission maximum,in O,472 nm
N#Cc1cc(N2c3ccccc3Sc3ccccc32)cc(N2c3ccccc3Sc3ccccc32)c1,emission maximum,in Cc1ccccc1,536 nm
COC1=[N+]2C(=C(c3ccccc3)c3ccc(OC)n3[B-]2(F)F)C=C1,emission maximum,in CC#N,628 nm
same,emission maximum,in CCCCCC,623 nm
same,emission maximum,in CCOC(C)=O,628 nm
same,emission maximum,in CO,620 nm
same,emission maximum,in ClCCl,630 nm
CC(C)(C)c1ccc2c(c1)c1cc(C(C)(C)C)ccc1n2-c1ccc(C(=O)c2ccc(-n3c4ccc(C(C)(C)C)cc4c4cc(C(C)(C)C)ccc43)nc2)cn1,emission maximum,in C1CCOC1,496.58 nm
same,emission maximum,in Cc1ccccc1,465.19 nm
same,emission maximum,in ClCCl,532.91 nm
Cc1c(COC(=O)c2ccc(I)cc2)n2c(OCC(=O)c3ccc(I)cc3)c(C)c(=O)n2c1=O,emission maximum,in CCO,458 nm
CCCCCCCCCCCCOc1cc2cc(N(C)C)ccc2cc1C=O,emission maximum,in C1CCOC1,448 nm
same,emission maximum,in CC#N,485 nm
same,emission maximum,in CCCCCC,415 nm
same,emission maximum,in CCO,521 nm
same,emission maximum,in CCOC(C)=O,450 nm
same,emission maximum,in CS(C)=O,494 nm
same,emission maximum,in ClCCl,469 nm
same,emission maximum,in O,504 nm
FC(F)(F)c1ccc(/C=C2\C=C(c3ccccc3)C=C2c2ccccc2)cc1,emission maximum,in C1CCOC1,516 nm
COc1ccc(-c2cc3c(s2)c(C(C)=O)cc(=O)n3Cc2ccccc2)cc1,emission maximum,in CC#N,515 nm
same,emission maximum,in ClCCl,512 nm
Cn1c(=O)c(/N=N/c2ccc(Nc3ccc([N+](=O)[O-])cc3S(=O)(=O)O)cc2)c(O)c2ccccc21,emission maximum,in C1CCOC1,615 nm
same,emission maximum,in CC(C)=O,617 nm
same,emission maximum,in CCOC(C)=O,610 nm
same,emission maximum,in CO,619 nm
same,emission maximum,in CS(C)=O,622 nm
same,emission maximum,in Cc1ccccc1,605 nm
same,emission maximum,in ClCCl,617 nm
same,emission maximum,in O,636 nm
C(=C\c1cccnc1)/c1ccc(N(c2ccccc2)c2ccccc2)cc1,emission maximum,in CC#N,476 nm
same,emission maximum,in CCCCCC,403 nm
CC(=O)O[B-]1(OC(C)=O)OC(/C=C/c2cccc3ccccc23)=CC(/C=C/c2cccc3ccccc23)=[O+]1,emission maximum,in C1CCOC1,539 nm
same,emission maximum,in CC#N,569 nm
same,emission maximum,in CC(C)=O,553 nm
same,emission maximum,in CS(C)=O,574 nm
same,emission maximum,in Cc1ccccc1,529 nm
same,emission maximum,in ClC(Cl)Cl,551 nm
same,emission maximum,in ClCCl,554 nm
Cc1ccccc1C1=C2C=CC(=[N+](C)C)C=C2[Si](C)(C)c2cc(N(C)C)ccc21,emission maximum,in O,660 nm
Cc1cc(=O)oc2cc3c4ccccc4c4ccccc4c3cc12,emission maximum,in C1CCOC1,410 nm
same,emission maximum,in CC#N,419 nm
same,emission maximum,in CO,420 nm
same,emission maximum,in CS(C)=O,418 nm
same,emission maximum,in Cc1ccccc1,410 nm
same,emission maximum,in ClC(Cl)Cl,415 nm
F[Si](c1ccccc1)(c1ccccc1)c1cccc2ccccc12,emission maximum,in C1CCOC1,332 nm
COc1ccc(-c2ccc3c(c2)c2cc(-c4ccc(OC)cc4)ccc2n3-c2ccc(C(=O)c3ccc4sc5ccccc5c4c3)cn2)cc1,emission maximum,in Cc1ccccc1,479.23 nm
same,emission maximum,in c1cc(-n2c3ccccc3c3ccccc32)cc(-n2c3ccccc3c3ccccc32)c1,484 nm
Brc1ccc(/C=C/c2cnc3ccccc3n2)cc1,emission maximum,in ClCCl,455 nm
COc1ccc2c3c([nH]c2c1)C(C)=NCC3,emission maximum,in CC#N,480 nm
same,emission maximum,in CS(C)=O,420 nm
same,emission maximum,in O,480 nm
